Source: patent publication US20260327250A1, “3-ETHYLAMINO-INDOLE DIMERS AS SEROTONERGIC AGENTS USEFUL FOR THE TREATMENT OF DISORDERS RELATED THERETO” (MINDSET PHARMA INC., priority 2022, published 2026)
“Also recorded” adds a separate entry of the source. Structures can show the parent of a compound that is named as a salt. Where two headings read alike, the source gives them in different places.

Assays:
[1] = biological target: T1, human 5-HT1A receptor (Homo sapiens, UniProt P08908); experiment: Human 5-HT1A radioligand binding assay ([3H]-8-Hydroxy-DPAT)
T1 sequence (P08908 1-422): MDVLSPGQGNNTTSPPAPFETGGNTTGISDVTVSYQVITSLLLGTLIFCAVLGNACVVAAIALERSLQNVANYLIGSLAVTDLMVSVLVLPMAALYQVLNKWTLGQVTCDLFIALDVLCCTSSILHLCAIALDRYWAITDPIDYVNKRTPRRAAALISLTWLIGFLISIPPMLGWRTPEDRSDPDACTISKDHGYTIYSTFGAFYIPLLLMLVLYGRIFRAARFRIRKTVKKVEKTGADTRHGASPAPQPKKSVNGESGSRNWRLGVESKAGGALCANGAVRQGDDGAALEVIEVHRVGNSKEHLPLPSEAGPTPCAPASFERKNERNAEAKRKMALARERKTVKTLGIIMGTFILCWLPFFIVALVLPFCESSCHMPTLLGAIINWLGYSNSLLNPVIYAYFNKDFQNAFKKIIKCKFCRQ
Protocol: The objective of this study was to evaluate the binding properties of test compounds on 5-hydroxytryptamine receptor 1A.
• 1. The assay buffer was prepared following the table below.
pH was adjusted to 7.4 followed by […] sterile filtration • 1. 8 doses of reference and test compounds were prepared starting from 10 mM stock solution as required by 5-fold serial dilutions with 100% (v/v) DMSO. • 2. UniFilter-96 GF/B Plate was Pretreated: • i. 50 μl/well of 0.5% (v/v) PEI was added to UniFilter-96 GF/B plates. The plates were sealed and incubated at 4° C. for 3 hrs. • ii. After incubation, the plates were washed 3 times with ice-cold wash buffer (50 mM Tris, pH7.4).
• i. Cell membrane was diluted with assay buffer and 100 μl/well was added to 96 round well plates to reach a concentration of 20 μg/well. • ii. 8 concentrations of reference or test compounds were prepared and 50 μl/well was added to 96 round deep well plates. • iii. [3H]-8-Hydroxy-DPAT was diluted with assay buffer to 2 nM (4× final concentration) and 50 μl/well was added to 96 round well plates. • 4. The plate was centrifuged at 1000 rpm for 30 secs and then agitated at 600 rpm, R.T. for 5 min. • 5. The plates were sealed and the plate was incubated at 27° C. for 90 min. • 6. The incubation was stopped by vacuum filtration onto GF/B filter plates followed by 4 times washing with ice-cold wash buffer (50 mM Tris, pH7.4). • 7. The plates were dried at 37° C. for 45 min. • 8. The filter plates were sealed and 40 μl/well of scintillation cocktail was added. • 9. The plate was read by using a Microbeta^2 microplate counter.
• 1. For reference and test compounds, the results were expressed as % Inhibition, using the normalization equation: N=100-100×(U−C2)/(C1−C2), where U is the unknown value, C1 is the average of high controls, and C2 is the average of low controls. • 2. The IC50 was determined by fitting percentage of inhibition as a […] of compound concentrations with Hill equation using XLfit. Results and Discussion

[2] = Rat plasma stability; conditions: for Remaining Percentage: rat plasma, 0 min
Protocol: (§1) The stock solution of test compound was prepared in DMSO and diluted at the final concentration of 200 μM.
(§2) • a. 2.5 μL of 200 μM or 1 mM test compound or control compound solution was spiked to 497.5 μL plasma to reach a final concentration of 1 μM or 5 μM. The final concentration of organic solvents was 0.5%. The assay was performed in duplicated. • b. The reaction samples were incubated at 37° C. at approximately 60 rpm in a water bath. • c. Aliquots of 50 μL were taken from the reaction samples at 0, 30, 60, 120, 180 and 240 minutes. The reaction was stopped by the addition of 7 volumes of cold acetonitrile containing internal standards (IS: 100 nM alprazolam, 200 nM imipramine, 200 nM labetalol and 2 μM ketoprofen). • d. All samples were vortexed for 2 minutes, followed by centrifugation at 3,220 g for 30 minutes to precipitate proteins. 100 μL of the supernatant was transferred to a new plate. The supernatant was diluted with ultrapure water according to the LC-MS signal response and peak shape.
(§3) Samples were Analyzed by LC-MS/MS. • LC system: Shimadzu • MS analysis: Triple Quad™ 6500+ from AB Inc (Canada) with an ESI interface • Column temperature: 40° C. • Column: Xselect® Hss T3 2.5μ (2.1×30 mm) coupled with preguard column • Mobile phase: 0.1% formic acid in water (A) and 0.1% formic acid in acetonitrile (B)
(§4) All calculations were carried out using Microsoft Excel. Remaining percentages of parent compounds at each time point were estimated by determining the peak area ratios from extracted ion chromatograms.

[3] = Mouse plasma stability; conditions: for Remaining Percentage: mouse plasma, 0 min
Protocol: as §1, §2, §3, §4

[4] = in vitro; conditions: human
Protocol: The Caco-2 cell culture medium was prepared consisting of Dulbecco's Modified Eagle's Medium (DMEM) with high glucose and L-glutamine supplemented with 10% FBS, 1× penicillin-streptomycin mixture and 1× non-essential amino acids (NEAA). • 2. The 50 μL of culture medium was added to each well of the Transwell insert. Transwell insert was removed from reservoir and 25 mL of culture medium was added. • 3. Incubated at 37° C., 5% CO2 for 1 hour. Plates were ready for cell seeding. • 4. The cells were cultivated in T-75 flasks in a cell culture incubator set at 37° C., 5% CO2, 95% relative humidity. The cells were allowed to reach 80-90% confluence before detaching and splitting. • 5. The cultivated cells were rinsed in T-75 flasks with 5 mL PBS. Aspirated off, 1.5 mL trypsin/EDTA was added, and incubated at 37° C. for approximately 5 to 10 minutes or until the cells detach and float. Trypsin/EDTA was inactivated by adding excess serum containing medium. • 6. The cell suspension was moved to a conical tube and cells were pelleted by centrifugation at 120×g for 10 minutes. • 7. The cells were resuspended in seeding medium at a density of 6.86×10^5 cells/mL. This cell concentration can be used to seed 2.40×10^5 cells/cm^2. […] Seeding and Feeding of Caco-2 Cells in Transwell Plates • 1. 50 μL of above cell suspension was added to each well of a previously prepared Transwell plate. • 2. The plate was incubated for 14-18 days. The medium was replaced every other day, beginning no sooner than 48 hours after initial plating. • 3. The procedure for medium changes was as follows. The plate was removed from incubator and placed in hood. The medium was aspirated from reservoir and each Transwell insert. 75 μL of culture medium was added to each well of Transwell inserts and 25 mL of culture medium was added to reservoir tray. The plate was returned to incubator.
When the 14-day Caco-2 cultured cells have reached confluence and are differentiated, they were ready to be used for transport studies. • 2. The medium was removed from reservoir and Transwell inserts. • 3. 75 μL of pre-warmed culture medium was added to each transwell insert and 25 mL of reservoir tray. • 4. The electrical resistance across the monolayer was measured using automated tissue resistance measuring system (World Precision Instruments, Sarasota, FL). • 5. The electrical resistance was recorded for each well. • 6. Once all wells were measured, the plate was returned to incubator. • 7. TEER of each well was calculated by the equation below. The TEER value of each well should be greater than 230 ohms-cm^2. TEER measurement (ohms)×Area of membrane (cm^2)=TEER value (ohm-cm^2)
The Caco-2 plate was removed from the incubator. Next, the monolayer was washed, and the volume exchanged two times using pre-warmed HBSS (10 mM HEPES, pH 7.4). Then the plate was incubated for 30 minutes at 37° C. • 1 mM stock solutions of control compounds and test compound(s) were prepared in DMSO and diluted with HBSS (10 mM HEPES, pH 7.4) to reach the final concentration of 5 μM. The final concentration of DMSO in the incubation system was 0.5%. Digoxin, prazosin and propranolol were used as control compounds in this assay. • 3. HBSS (10 mM HEPES, pH 7.4) was removed after 30 minutes pre-incubation. • 4. The rate of drug transport was incubated in the apical to basolateral direction. 75 μL of the control compounds and test compound was added to the Transwell insert (apical compartment). The wells were filled in the receiver plate (basolateral compartment) with 235 μL of HBSS (10 mM HEPES, pH 7.4). • 5. The rate of drug transport was determined in the basolateral to apical direction. 235 μL of the control compounds and test compound(s) was added to the receiver plate wells (basolateral compartment). The Transwell insert (apical compartment) was filled with 75 μL of HBSS (10 mM HEPES, pH 7.4). • 6. […] Incubated at 37° C. for 2 hours. • 8.

[5] = in vitro; conditions: rat, plasma
Protocol: as §1, §2, §3, §4

[6] = Human, rat and mouse liver microsomes stability (overall conclusion); assay type: in vitro ADME; conditions: 60-minute time period
Protocol: This study was performed in duplicate.
All calculations were carried out using Microsoft Excel.
All calculations were carried out using Microsoft Excel. Peak areas were determined from extracted ion chromatograms.

[7] = Dog plasma stability; conditions: for Remaining Percentage: dog plasma, 0 min
Protocol: as §1, §2, §3, §4

[8] = Human plasma stability; conditions: for Remaining Percentage: human plasma, 0 min
Protocol: as §1, §2, §3, §4

[9] = in vitro; conditions: mouse, plasma
Protocol: as §1, §2, §3, §4

[10] = in vitro; conditions: human, plasma
Protocol: as §1, §2, §3, §4

[11] = tested on: brain's default mode network; conditions: humans, intravenous; cited from earlier work
[12] = biological target: human 5-HT2A receptor (Homo sapiens, UniProt P28223); conditions: human versus rat receptor; cited from earlier work
[13] = tested on: frontal cortex; conditions: healthy participants, 15 or 20 mg orally; cited from earlier work
[14] = humans, controlled setting; cited from earlier work
[15] = tested on: 5-HT2A; conditions: rats, 5-HT2A or 5-HT1A antagonists; cited from earlier work
[16] = biological target: 5-HT2A and 5-HT2C receptors; conditions: compared with LSD; cited from earlier work
[17] = tested on: low attentive and low motivated rats; conditions: doses below the threshold for wet dog shake response; cited from earlier work
[18] = tested on: 5-HT1A receptors; conditions: cited from earlier work
[19] = patients; psilocybin-assisted psychotherapy or supportive setting; cited from earlier work
[20] = [3H]-8-Hydroxy-DPAT, 27° C., 90 min, read-out: h5-HT1A, IC50

human 5-HT2A receptor, sequence (P28223 whole entry): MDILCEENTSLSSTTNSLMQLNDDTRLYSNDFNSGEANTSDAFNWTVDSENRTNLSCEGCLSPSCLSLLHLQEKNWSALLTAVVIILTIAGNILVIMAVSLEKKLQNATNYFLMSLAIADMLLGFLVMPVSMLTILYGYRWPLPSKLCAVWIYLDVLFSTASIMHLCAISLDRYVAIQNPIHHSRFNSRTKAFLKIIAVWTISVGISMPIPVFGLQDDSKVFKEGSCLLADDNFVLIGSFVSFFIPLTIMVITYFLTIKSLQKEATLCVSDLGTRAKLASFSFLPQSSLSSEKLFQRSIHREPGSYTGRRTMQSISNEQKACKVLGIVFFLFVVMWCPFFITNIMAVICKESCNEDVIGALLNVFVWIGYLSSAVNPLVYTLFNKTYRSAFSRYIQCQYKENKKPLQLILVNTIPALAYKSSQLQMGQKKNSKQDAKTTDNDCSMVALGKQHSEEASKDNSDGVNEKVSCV

CC(C)N(CCc1c[nH]c2cccc(O)c12)C(C)C [Compound 7]
IC50 [1, 20]: 4.69 µM

CN(C)CCc1c[nH]c2cccc(OC(=O)CCCC(=O)Oc3cccc4[nH]cc(CCN(C)C)c34)c12 [Compound I-24, Bis(3-(2-(dimethylamino)ethyl)-1H-indol-4-yl) glutarate]
Remaining Percentage [2]: 100.00%
IC50 [1, 20]: 0.336 µM
Remaining Percentage [3]: 100.00%
Papp A→B at 2 h, 5 µM ([4]; Caco-2, pH 7.4): 0.27 ×10⁻⁶ cm/s
Papp B→A at 2 h, 5 µM ([4]; Caco-2, pH 7.4): 2.47 ×10⁻⁶ cm/s
efflux ratio at 2 h, 5 µM ([4]; Caco-2, pH 7.4): 9.16
recovery at 2 h, 5 µM ([4]; Caco-2, pH 7.4, Percentage recovery A→B, apical to basolateral): 112%
recovery at 2 h, 5 µM ([4]; Caco-2, pH 7.4, Percentage recovery B→A, basolateral to apical): 105%
remaining at 0.5 h [5]: 0%
remaining at 1 h [5]: 0%
remaining at 2 h [5]: 0%
remaining at 3 h [5]: 0%
remaining at 4 h [5]: 0%
metabolic stability (conclusion) [6]: rapidly metabolized
Remaining Percentage [7]: 100.00%
Remaining Percentage [8]: 100.00%
remaining at 0.5 h [9]: 0%
remaining at 1 h [9]: 0%
remaining at 2 h [9]: 0%
remaining at 3 h [9]: 0%
remaining at 4 h [9]: 0%
remaining at 0.5 h [10]: 0%
remaining at 1 h [10]: 0%
remaining at 2 h [10]: 0%
remaining at 3 h [10]: 0%
remaining at 4 h [10]: 0%

CC(C)N(CCc1c[nH]c2cccc(OC(=O)CCCC(=O)Oc3cccc4[nH]cc(CCN(C(C)C)C(C)C)c34)c12)C(C)C [Compound I-37, Bis(3-(2-(diisopropylamino)ethyl)-1H-indol-4-yl) glutarate dihydrochloride]
Remaining Percentage [2]: 100.00%
remaining at 0.5 h ([2]; rat, plasma): 0%
remaining at 1 h ([2]; rat, plasma): 0%
remaining at 2 h ([2]; rat, plasma): 0%
remaining at 3 h ([2]; rat, plasma): 0%
remaining at 4 h ([2]; rat, plasma): 0%
IC50 [1]: 3.96 µM
Remaining Percentage [3]: 100.00%
remaining at 0.5 h ([3]; mouse, plasma): 0%
remaining at 1 h ([3]; mouse, plasma): 0%
remaining at 2 h ([3]; mouse, plasma): 0%
remaining at 3 h ([3]; mouse, plasma): 0%
remaining at 4 h ([3]; mouse, plasma): 0%
metabolic stability (conclusion) [6]: rapidly metabolized
Remaining Percentage [7]: 100.00%
half-life ([7]; dog, plasma): 1.91 h
remaining at 0.5 h ([7]; dog, plasma): 82.6%
remaining at 1 h ([7]; dog, plasma): 70.5%
remaining at 2 h ([7]; dog, plasma): 50.5%
remaining at 3 h ([7]; dog, plasma): 31.6%
remaining at 4 h ([7]; dog, plasma): 24.2%
Remaining Percentage [8]: 100.00%
remaining at 0.5 h ([8]; human, plasma): 0%
remaining at 1 h ([8]; human, plasma): 0%
remaining at 2 h ([8]; human, plasma): 0%
remaining at 3 h ([8]; human, plasma): 0%
remaining at 4 h ([8]; human, plasma): 0%

CN(C)CCc1c[nH]c2cccc(O)c12 [Psilocin, 4-hydroxy-N,N-dimethyltryptamine, reference compound]
Papp A→B at 2 h, 5 µM ([4]; Caco-2, pH 7.4): 24.6 ×10⁻⁶ cm/s
Papp B→A at 2 h, 5 µM ([4]; Caco-2, pH 7.4): 18.7 ×10⁻⁶ cm/s

CN(C)CCc1c[nH]c2cccc(OP(=O)(O)O)c12 [Psilocybin]
oscillatory power [11]: decreases in oscillatory power in areas of the brain's default mode network
IC50 [1, 20]: 4.79 µM
affinity for 5-HT2A receptor [12]: stronger affinity for the human 5-HT2A receptor than for the rat receptor
absolute metabolic rate of glucose [13]: increased absolute metabolic rate of glucose in frontal, and to a lesser extent in other, cortical regions as well as in striatal and limbic subcortical structures
adverse effect [14]: transient, delayed headache
drug discrimination [15]: 5-HT2A antagonists, but not 5-HT1A antagonists, prevented rats from recognizing psilocybin
K(i) [16]: lower K(i) for both 5-HT2A and 5-HT2C receptors than LSD
task performance [17]: improved performance on the 5-choice serial reaction time and progressive ratio tasks
activation of 5-HT1A receptors [18]: activates 5-HT1A receptors
relief of depression and anxiety [19]: unprecedented positive relief of anxiety and depression; also recorded: significant and sustained anti-depressant and anxiolytic effects
